System: 633275-114-R-J1-PDC complex spheroids, viability
Assay: Anticancer human tumor 633275-114-R-J1-PDC patient-derived endometrial adenocarcinoma cell line growth inhibition [GQUAD]
Conditions: for IC50: curve of first compound; for viability, T/C: stronger effect = lower value; active = viability on the fitted dose curve at most 10% of control; inactive = the rest
Outline: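 Tumor cells were grown as complex spheroids with HUVEC endothelial cells and mesenchymal stem cells as stroma. G-quadruplex stabilizers were combined with targeted agents over half-log dilutions from near the clinical Cmax, or from 10 microM.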

[1] = second compound 0.0316 µM, first compound 0.0316 µM
[2] = second compound 0.0316 µM, first compound 0.1 µM
[3] = second compound 0.0316 µM, first compound 0.316 µM
[4] = second compound 0.0316 µM, first compound 1 µM
[5] = second compound 0.0316 µM, first compound 3.16 µM
[6] = second compound 0.0316 µM, first compound 10 µM
[7] = second compound 0.1 µM, first compound 0.0316 µM
[8] = second compound 0.1 µM, first compound 0.1 µM
[9] = second compound 0.1 µM, first compound 0.316 µM
[10] = second compound 0.1 µM, first compound 1 µM
[11] = second compound 0.1 µM, first compound 3.16 µM
[12] = second compound 0.1 µM, first compound 10 µM
[13] = second compound 0.316 µM, first compound 0.0316 µM
[14] = second compound 0.316 µM, first compound 0.1 µM
[15] = second compound 0.316 µM, first compound 0.316 µM
[16] = second compound 0.316 µM, first compound 1 µM
[17] = second compound 0.316 µM, first compound 3.16 µM
[18] = second compound 0.316 µM, first compound 10 µM
[19] = second compound 1 µM, first compound 0.0316 µM
[20] = second compound 1 µM, first compound 0.1 µM
[21] = second compound 1 µM, first compound 0.316 µM
[22] = second compound 1 µM, first compound 1 µM
[23] = second compound 1 µM, first compound 3.16 µM
[24] = second compound 1 µM, first compound 10 µM
[25] = second compound 3.16 µM, first compound 0.0316 µM
[26] = second compound 3.16 µM, first compound 0.1 µM
[27] = second compound 3.16 µM, first compound 0.316 µM
[28] = second compound 3.16 µM, first compound 1 µM
[29] = second compound 3.16 µM, first compound 3.16 µM
[30] = second compound 3.16 µM, first compound 10 µM
[31] = second compound 10 µM, first compound 0.0316 µM
[32] = second compound 10 µM, first compound 0.1 µM
[33] = second compound 10 µM, first compound 0.316 µM
[34] = second compound 10 µM, first compound 1 µM
[35] = second compound 10 µM, first compound 3.16 µM
[36] = second compound 10 µM, first compound 10 µM
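Also: spheroids exposed to the agents for seven days.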
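For viability, T/C in this document: percent of DMSO vehicle control viability which is 100%.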

COc1ncnc(C2CC2)c1-c1ncc2cnn(Cc3ccc(-c4nc(C(F)(F)F)cn4C(C)C)cc3)c2n1 + Cc1cnc(CNC(=O)c2c(=O)c3ccc(N4CCCN(C)CC4)nc3n3c2sc2ccccc23)cn1
< 31.6 nM: IC50 (second compound 0.1 µM) | IC50 (second compound 0.316 µM) | IC50 (second compound 1 µM) | IC50 (second compound 3.16 µM) | IC50 (second compound 10 µM)
> 10000 nM: IC50 (second compound 0.0316 µM)
inactive: viability, T/C [1] 53.1% | viability, T/C [2] 54.6% | viability, T/C [3] 59.3% | viability, T/C [4] 56% | viability, T/C [5] 56.5% | viability, T/C [6] 58.2% | viability, T/C [7] 45.3% | viability, T/C [8] 45.5% | viability, T/C [9] 45.9% | viability, T/C [10] 48.5% | viability, T/C [11] 49% | viability, T/C [12] 50% | viability, T/C [13] 42.7% | viability, T/C [14] 43.9% | viability, T/C [15] 42.1% | viability, T/C [16] 38.8% | viability, T/C [17] 48.7% | viability, T/C [18] 42.5% | viability, T/C [19] 39.9% | viability, T/C [20] 39.7% | viability, T/C [21] 37.1% | viability, T/C [22] 36.9% | viability, T/C [23] 40.5% | viability, T/C [24] 38.7% | viability, T/C [25] 32% | viability, T/C [26] 32.1% | viability, T/C [27] 35.5% | viability, T/C [28] 33.4% | viability, T/C [29] 36.6% | viability, T/C [30] 34.1% | viability, T/C [31] 29.2% | viability, T/C [32] 28.8% | viability, T/C [33] 30.5% | viability, T/C [34] 27.5% | viability, T/C [35] 31.9% | viability, T/C [36] 29.3%

Cc1[nH]c2ccccc2c1CCNCc1ccc(/C=C/C(=O)NO)cc1 + Cc1cnc(CNC(=O)c2c(=O)c3ccc(N4CCCN(C)CC4)nc3n3c2sc2ccccc23)cn1
< 0.999 nM: IC50 (second compound 0.316 µM) | IC50 (second compound 1 µM) | IC50 (second compound 3.16 µM) | IC50 (second compound 10 µM)
inactive: viability, T/C (second compound 0.0316 µM, first compound 0.000999 µM) 65.8% | viability, T/C (second compound 0.0316 µM, first compound 0.00316 µM) 59.5% | viability, T/C (second compound 0.0316 µM, first compound 0.00999 µM) 52.6% | viability, T/C [1] 41.3% | viability, T/C (second compound 0.0316 µM, first compound 0.0999 µM) 32% | viability, T/C [3] 16.2% | viability, T/C (second compound 0.1 µM, first compound 0.000999 µM) 56.1% | viability, T/C (second compound 0.1 µM, first compound 0.00316 µM) 48% | viability, T/C (second compound 0.1 µM, first compound 0.00999 µM) 45.2% | viability, T/C [7] 38% | viability, T/C (second compound 0.1 µM, first compound 0.0999 µM) 25.4% | viability, T/C [9] 15.1% | viability, T/C (second compound 0.316 µM, first compound 0.000999 µM) 50.4% | viability, T/C (second compound 0.316 µM, first compound 0.00316 µM) 40.7% | viability, T/C (second compound 0.316 µM, first compound 0.00999 µM) 37.5% | viability, T/C [13] 30.9% | viability, T/C (second compound 0.316 µM, first compound 0.0999 µM) 21.7% | viability, T/C [15] 9.86% | viability, T/C (second compound 1 µM, first compound 0.000999 µM) 44.3% | viability, T/C (second compound 1 µM, first compound 0.00316 µM) 38.2% | viability, T/C (second compound 1 µM, first compound 0.00999 µM) 34.8% | viability, T/C [19] 33.1% | viability, T/C (second compound 1 µM, first compound 0.0999 µM) 21.4% | viability, T/C (second compound 3.16 µM, first compound 0.000999 µM) 38.3% | viability, T/C (second compound 3.16 µM, first compound 0.00316 µM) 32.1% | viability, T/C (second compound 3.16 µM, first compound 0.00999 µM) 31.9% | viability, T/C [25] 27.7% | viability, T/C (second compound 3.16 µM, first compound 0.0999 µM) 16.6% | viability, T/C (second compound 10 µM, first compound 0.000999 µM) 27.3% | viability, T/C (second compound 10 µM, first compound 0.00316 µM) 31.2% | viability, T/C (second compound 10 µM, first compound 0.00999 µM) 27.7% | viability, T/C [31] 24.8% | viability, T/C (second compound 10 µM, first compound 0.0999 µM) 16.5%
13 nM: IC50 (second compound 0.0316 µM)
active: viability, T/C [21] 8.16% | viability, T/C [27] 0.13% | viability, T/C [33] 0.21%
3.49 nM: IC50 (second compound 0.1 µM)

O=C(NO)c1cnc(N2CCN(S(=O)(=O)c3ccc4ccccc4c3)CC2)nc1 + Cc1cnc(CNC(=O)c2c(=O)c3ccc(N4CCCN(C)CC4)nc3n3c2sc2ccccc23)cn1
109 nM: IC50 (second compound 0.0316 µM)
< 31.6 nM: IC50 (second compound 0.1 µM) | IC50 (second compound 0.316 µM) | IC50 (second compound 1 µM) | IC50 (second compound 3.16 µM) | IC50 (second compound 10 µM)
inactive: viability, T/C [1] 54% | viability, T/C [2] 53.5% | viability, T/C [3] 33.2% | viability, T/C [4] 15.1% | viability, T/C [7] 48.3% | viability, T/C [8] 42.8% | viability, T/C [9] 31% | viability, T/C [10] 16.3% | viability, T/C [13] 40.8% | viability, T/C [14] 42.9% | viability, T/C [15] 23.7% | viability, T/C [16] 14.1% | viability, T/C [19] 40.4% | viability, T/C [20] 36.3% | viability, T/C [21] 22.4% | viability, T/C [22] 7.98% | viability, T/C [25] 37.8% | viability, T/C [26] 34.1% | viability, T/C [27] 20.5% | viability, T/C [31] 31.9% | viability, T/C [32] 27.6% | viability, T/C [33] 21.5%
active: viability, T/C [5] 12.3% | viability, T/C [6] 4.21% | viability, T/C [11] 10.7% | viability, T/C [12] 4.01% | viability, T/C [17] 7.68% | viability, T/C [18] 1.96% | viability, T/C [23] 3.91% | viability, T/C [24] 0.11% | viability, T/C [28] 0.25% | viability, T/C [29] 0.07% | viability, T/C [30] 0.11% | viability, T/C [34] 0.17% | viability, T/C [35] 0.14% | viability, T/C [36] 0.18%

Reference: PubChem BioAssay AID2060505 (Molecular Pharmacology Branch, DTP, NCI, 2025)
